Assay results from US3985766A, “Bis-imidazolyl-bisphenylmethane and salts thereof” (Bayer Aktiengesellschaft, priority 1968, dated 1976).

Test system: Trichophyton mentagrophytes
Test: effectiveness in vitro against human-pathogenic fungi (fungistatic)
Assay type: cell-based
Settings: Milieu d'epreuve according to Sabouraud, 28° C
Description: I. effectiveness in vitro against human-pathogenic fungi
1. Trichophyton mentagrophytes:
The test medium was Milieu d'epreuve according to Sabouraud, incubation temperature: 28° C.

| SMILES | MIC |
| --- | --- |
| c1ccc(C(c2ccccc2)(n2ccnc2)n2ccnc2)cc1 [compound a), bis-imidazolyl-bis-phenylmethane] | < 4 µg/mL |
| Fc1ccc(C(c2ccccc2F)(n2ccnc2)n2ccnc2)cc1 [compound d), bis-imidazolyl-2,4'-difluoro-diphenylmethane] | < 4 µg/mL |
| Clc1cccc(C(c2ccccc2)(n2ccnc2)n2ccnc2)c1 [compound f), bis-imidazolyl-3-chlorophenyl-phenylmethane] | < 4 µg/mL |
| N#Cc1ccc(C(c2ccccc2)(n2ccnc2)n2ccnc2)cc1 [compound g), bis-imidazolyl-4-cyanophenyl-phenylmethane] | < 40 µg/mL |

Continued, values first:

| MIC | SMILES |
| --- | --- |
| < 4 µg/mL | Clc1ccccc1C(c1ccccc1)(n1ccnc1)n1ccnc1 [compound e), bis-imidazolyl-2-chlorophenyl-phenylmethane] |
| < 4 µg/mL | Clc1ccc(C(c2ccccc2)(n2ccnc2)n2ccnc2)cc1 [compound b), bis-imidazolyl-4-chlorophenyl-phenylmethane] |
| < 4 µg/mL | Fc1ccc(C(c2ccccc2)(n2ccnc2)n2ccnc2)cc1 [compound c), bis-imidazolyl-4-fluorophenyl-phenylmethane] |
